Type in all cases: cell-based
Details in all cases: 24 hours of compound treatment, 50 nM and 500 nM

For one experiment, the target named is T1, CK1α (Homo sapiens, UniProt P48729+Q96SW2).
T1 construct: effects of the compounds of the present disclosure on the expression of target proteins in cells; endogenous in cells; host or cells: human PBMCs (hPBMCs)
The experiment is described as follows: Western-blot assay, substrate protein degradation in hPBMCs: CK1α.

The target in another experiment is T2, WEE1 (Homo sapiens, UniProt P30291+Q96SW2).
T2 construct: effects of the compounds of the present disclosure on the expression of target proteins in cells; endogenous in cells; host or cells: human PBMCs (hPBMCs)
The experiment is described as follows: Western-blot assay, substrate protein degradation in hPBMCs: WEE1.

The target of a further experiment is T3, IKZF3 (Homo sapiens, UniProt Q96SW2+Q9UKT9).
T3 construct: effects of the compounds of the present disclosure on the expression of target proteins in cells; endogenous in cells; host or cells: human PBMCs (hPBMCs)
Description: Western-blot assay, substrate protein degradation in hPBMCs: IKZF3.

Another experiment deals with T4, IKZF1 (Homo sapiens, UniProt Q13422+Q96SW2).
T4 construct: effects of the compounds of the present disclosure on the expression of target proteins in cells; endogenous in cells; host or cells: human PBMCs (hPBMCs)
The experiment is described as follows: Western-blot assay, substrate protein degradation in hPBMCs: IKZF1.

For another experiment, the target named is T5, IKZF2 (Homo sapiens, UniProt Q96SW2+Q9UKS7).
T5 construct: effects of the compounds of the present disclosure on the expression of target proteins in cells; endogenous in cells; host or cells: human PBMCs (hPBMCs)
The experiment is described as follows: Western-blot assay, substrate protein degradation in hPBMCs: IKZF2.

For a further experiment, the target named is T6, GSPT1 (Homo sapiens, UniProt P15170+Q96SW2).
T6 construct: effects of the compounds of the present disclosure on the expression of target proteins in cells; endogenous in cells; host or cells: human PBMCs (hPBMCs)
Description: Western-blot assay, substrate protein degradation in hPBMCs: GSPT1.

T5 sequence (Q9UKS7 whole entry): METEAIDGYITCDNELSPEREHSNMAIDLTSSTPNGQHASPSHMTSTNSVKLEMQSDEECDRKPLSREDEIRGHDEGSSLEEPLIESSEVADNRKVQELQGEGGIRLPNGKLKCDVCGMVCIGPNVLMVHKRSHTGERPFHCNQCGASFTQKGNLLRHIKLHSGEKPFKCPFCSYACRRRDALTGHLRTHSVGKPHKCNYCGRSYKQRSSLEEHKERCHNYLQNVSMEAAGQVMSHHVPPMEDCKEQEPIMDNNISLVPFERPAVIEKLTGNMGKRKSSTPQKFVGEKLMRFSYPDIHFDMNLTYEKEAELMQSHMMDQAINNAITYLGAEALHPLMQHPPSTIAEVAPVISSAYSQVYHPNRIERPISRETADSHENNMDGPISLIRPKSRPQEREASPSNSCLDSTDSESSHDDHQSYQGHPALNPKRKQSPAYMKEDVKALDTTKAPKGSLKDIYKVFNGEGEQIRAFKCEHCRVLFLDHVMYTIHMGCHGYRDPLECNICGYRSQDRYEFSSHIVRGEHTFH
T5 sequence (Q96SW2 whole entry): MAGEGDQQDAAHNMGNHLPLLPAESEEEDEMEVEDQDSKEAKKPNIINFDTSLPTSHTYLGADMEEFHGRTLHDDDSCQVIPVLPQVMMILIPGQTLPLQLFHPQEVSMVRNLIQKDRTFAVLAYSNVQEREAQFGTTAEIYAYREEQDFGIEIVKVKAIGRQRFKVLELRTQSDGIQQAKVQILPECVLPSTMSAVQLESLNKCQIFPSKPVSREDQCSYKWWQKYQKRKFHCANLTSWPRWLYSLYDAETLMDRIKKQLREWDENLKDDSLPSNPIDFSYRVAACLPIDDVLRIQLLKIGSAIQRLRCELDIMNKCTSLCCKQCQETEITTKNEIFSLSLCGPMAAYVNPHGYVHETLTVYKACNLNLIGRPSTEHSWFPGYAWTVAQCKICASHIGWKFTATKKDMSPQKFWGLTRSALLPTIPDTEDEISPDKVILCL
T5 sequence (Q16531 whole entry partner): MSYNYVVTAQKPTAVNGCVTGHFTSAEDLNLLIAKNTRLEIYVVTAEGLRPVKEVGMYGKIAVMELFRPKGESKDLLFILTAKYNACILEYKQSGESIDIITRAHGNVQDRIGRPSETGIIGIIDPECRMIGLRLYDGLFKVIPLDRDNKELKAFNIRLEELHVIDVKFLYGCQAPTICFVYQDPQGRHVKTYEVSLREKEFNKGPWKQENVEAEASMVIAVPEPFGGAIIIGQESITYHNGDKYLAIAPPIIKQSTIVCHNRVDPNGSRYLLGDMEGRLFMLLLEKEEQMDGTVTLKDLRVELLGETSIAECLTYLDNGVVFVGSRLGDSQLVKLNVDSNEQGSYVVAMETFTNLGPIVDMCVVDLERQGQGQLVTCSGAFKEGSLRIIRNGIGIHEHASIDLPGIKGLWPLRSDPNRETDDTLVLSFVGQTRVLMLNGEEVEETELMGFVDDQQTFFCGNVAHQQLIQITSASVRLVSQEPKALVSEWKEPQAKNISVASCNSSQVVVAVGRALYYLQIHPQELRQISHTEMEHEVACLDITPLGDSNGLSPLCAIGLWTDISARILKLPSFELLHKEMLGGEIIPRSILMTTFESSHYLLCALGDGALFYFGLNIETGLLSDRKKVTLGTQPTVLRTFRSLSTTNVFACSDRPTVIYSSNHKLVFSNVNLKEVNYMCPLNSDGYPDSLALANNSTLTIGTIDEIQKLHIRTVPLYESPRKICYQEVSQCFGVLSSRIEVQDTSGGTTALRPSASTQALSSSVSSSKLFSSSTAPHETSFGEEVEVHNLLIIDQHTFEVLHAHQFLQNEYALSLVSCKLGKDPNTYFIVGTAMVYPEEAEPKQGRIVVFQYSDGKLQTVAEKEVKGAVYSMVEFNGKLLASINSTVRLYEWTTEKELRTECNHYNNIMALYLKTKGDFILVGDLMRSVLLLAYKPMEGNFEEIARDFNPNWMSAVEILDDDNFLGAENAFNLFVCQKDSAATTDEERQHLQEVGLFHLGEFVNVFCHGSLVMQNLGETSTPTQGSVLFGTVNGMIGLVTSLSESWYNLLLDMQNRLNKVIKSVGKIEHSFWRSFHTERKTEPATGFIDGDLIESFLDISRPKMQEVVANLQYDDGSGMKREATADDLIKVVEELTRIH
T3 sequence (Q9UKT9 whole entry): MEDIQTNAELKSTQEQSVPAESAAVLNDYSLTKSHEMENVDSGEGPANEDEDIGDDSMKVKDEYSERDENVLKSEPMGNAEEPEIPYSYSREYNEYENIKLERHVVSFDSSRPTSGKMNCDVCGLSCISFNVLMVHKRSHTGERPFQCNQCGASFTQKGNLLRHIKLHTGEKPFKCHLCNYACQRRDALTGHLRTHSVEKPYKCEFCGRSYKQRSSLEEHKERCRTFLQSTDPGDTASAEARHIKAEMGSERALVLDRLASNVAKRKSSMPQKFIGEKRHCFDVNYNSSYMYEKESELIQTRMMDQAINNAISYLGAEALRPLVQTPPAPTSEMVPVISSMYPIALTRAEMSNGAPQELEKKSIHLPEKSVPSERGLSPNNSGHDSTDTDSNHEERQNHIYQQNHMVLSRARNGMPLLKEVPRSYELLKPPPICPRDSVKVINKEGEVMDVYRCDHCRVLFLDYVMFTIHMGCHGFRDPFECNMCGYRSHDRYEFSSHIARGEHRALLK
T3 sequence (Q96SW2 whole entry): as the sequence (Q96SW2 whole entry) above
T3 sequence (Q16531 whole entry partner): as the sequence (Q16531 whole entry partner) above
T1 sequence (P48729 whole entry): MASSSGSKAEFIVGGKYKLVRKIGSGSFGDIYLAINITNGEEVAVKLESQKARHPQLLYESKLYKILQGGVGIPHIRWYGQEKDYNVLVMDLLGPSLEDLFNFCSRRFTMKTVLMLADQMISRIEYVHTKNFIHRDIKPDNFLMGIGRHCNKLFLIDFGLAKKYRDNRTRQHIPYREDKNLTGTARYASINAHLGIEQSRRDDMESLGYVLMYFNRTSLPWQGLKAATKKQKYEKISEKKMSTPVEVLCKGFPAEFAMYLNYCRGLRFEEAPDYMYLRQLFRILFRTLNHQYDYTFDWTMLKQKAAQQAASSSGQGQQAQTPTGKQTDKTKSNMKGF
T1 sequence (Q96SW2 whole entry): as the sequence (Q96SW2 whole entry) above
T1 sequence (Q16531 whole entry partner): as the sequence (Q16531 whole entry partner) above
T6 sequence (P15170 whole entry): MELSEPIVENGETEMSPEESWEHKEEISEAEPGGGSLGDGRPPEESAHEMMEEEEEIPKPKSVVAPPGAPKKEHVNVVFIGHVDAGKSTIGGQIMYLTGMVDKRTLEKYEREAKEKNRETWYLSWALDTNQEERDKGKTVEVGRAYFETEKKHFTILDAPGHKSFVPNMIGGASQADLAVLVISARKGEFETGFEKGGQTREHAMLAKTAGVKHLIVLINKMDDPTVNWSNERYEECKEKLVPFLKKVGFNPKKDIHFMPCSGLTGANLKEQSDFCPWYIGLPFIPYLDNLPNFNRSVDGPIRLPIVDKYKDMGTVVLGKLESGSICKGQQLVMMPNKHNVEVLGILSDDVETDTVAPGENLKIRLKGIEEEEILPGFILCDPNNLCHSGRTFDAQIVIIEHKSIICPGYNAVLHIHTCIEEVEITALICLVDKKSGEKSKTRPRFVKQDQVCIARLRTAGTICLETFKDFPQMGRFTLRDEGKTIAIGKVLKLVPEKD
T6 sequence (Q96SW2 whole entry): as the sequence (Q96SW2 whole entry) above
T6 sequence (Q16531 whole entry partner): as the sequence (Q16531 whole entry partner) above
T2 sequence (P30291 whole entry): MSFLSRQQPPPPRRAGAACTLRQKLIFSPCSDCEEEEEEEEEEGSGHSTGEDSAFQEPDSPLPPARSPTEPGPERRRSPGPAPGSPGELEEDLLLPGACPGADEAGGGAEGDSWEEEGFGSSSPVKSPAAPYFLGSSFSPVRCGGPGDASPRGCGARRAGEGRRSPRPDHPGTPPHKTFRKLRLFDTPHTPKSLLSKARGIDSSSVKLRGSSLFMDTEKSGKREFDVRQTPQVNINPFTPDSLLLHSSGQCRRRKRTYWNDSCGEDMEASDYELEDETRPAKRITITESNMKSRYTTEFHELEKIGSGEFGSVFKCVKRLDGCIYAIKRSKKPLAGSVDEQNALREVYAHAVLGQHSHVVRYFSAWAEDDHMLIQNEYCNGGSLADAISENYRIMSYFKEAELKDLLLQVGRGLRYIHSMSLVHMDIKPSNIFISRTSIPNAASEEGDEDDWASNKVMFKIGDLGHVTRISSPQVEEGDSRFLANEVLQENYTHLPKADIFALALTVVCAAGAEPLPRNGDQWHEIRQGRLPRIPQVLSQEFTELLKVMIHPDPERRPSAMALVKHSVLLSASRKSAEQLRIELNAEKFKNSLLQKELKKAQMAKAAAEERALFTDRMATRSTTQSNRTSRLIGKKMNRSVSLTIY
T2 sequence (Q96SW2 whole entry): as the sequence (Q96SW2 whole entry) above
T2 sequence (Q16531 whole entry partner): as the sequence (Q16531 whole entry partner) above

For the compound `O=C1CCN(N2Cc3cc(CN4CCC(c5n[nH]c6cc(F)ccc56)CC4)ccc3C2=O)C(=O)N1` [GT-07508, 1-(5-((4-(6-fluoro-1H-indazol-3-yl)piperidin-1-yl)methyl)-1-oxoisoindolin-2-yl)dihydropyrimidine-2,4(1H,3H)-dione], the “substrate protein remaining % CK1α” value on CK1α is given as “A (0% ≤ substrate protein remaining % ≤ 80%)”. Further, on WEE1, the “substrate protein remaining % WEE1” value is on record as “A (0% ≤ substrate protein remaining % ≤ 80%)”. The “substrate protein remaining % IKZF3” value on IKZF3 is on record as “B (80%< substrate protein remaining %≤ 100%)”. Further, on IKZF1, the “substrate protein remaining % IKZF1” value was “A (0% ≤ substrate protein remaining % ≤ 80%)”. In addition, on IKZF2, the “substrate protein remaining % IKZF2” value was “A (0% ≤ substrate protein remaining % ≤ 80%)”. Further, on GSPT1, the “substrate protein remaining % GSPT1” value is reported as “A (0% ≤ substrate protein remaining % ≤ 80%)”.

Turning to `O=C1CCN(N2C(=O)c3ccc(CN4CCC(c5noc6ccccc56)CC4)cc3C2=O)C(=O)N1` [GT-07522, 5-((4-(benzo[d]isoxazol-3-yl)piperidin-1-yl)methyl)-2-(2,4-dioxotetrahydropyrimidin-1(2H)-yl)isoindoline-1,3-dione], the “substrate protein remaining % CK1α” value on CK1α was “A (0% ≤ substrate protein remaining % ≤ 80%)”. For the same compound, the “substrate protein remaining % WEE1” value on WEE1 is given as “A (0% ≤ substrate protein remaining % ≤ 80%)”. Also, at IKZF3, the “substrate protein remaining % IKZF3” value is reported as “B (80%< substrate protein remaining %≤ 100%)”. Moreover, the “substrate protein remaining % IKZF1” value on IKZF1 is “A (0% ≤ substrate protein remaining % ≤ 80%)”. Further, the “substrate protein remaining % IKZF2” value on IKZF2 was “A (0% ≤ substrate protein remaining % ≤ 80%)”. Moreover, the “substrate protein remaining % GSPT1” value on GSPT1 is recorded as “A (0% ≤ substrate protein remaining % ≤ 80%)”.

`O=C1CCN(N2C(=O)c3ccc(CN4CCC(c5ccon5)CC4)cc3C2=O)C(=O)N1` [GT-07523, 2-(2,4-dioxotetrahydropyrimidin-1(2H)-yl)-5-((4-(isoxazol-3-yl)piperidin-1-yl)methyl)isoindoline-1,3-dione]: the “substrate protein remaining % CK1α” value on CK1α is reported as “A (0% ≤ substrate protein remaining % ≤ 80%)”. Also, the “substrate protein remaining % WEE1” value at WEE1 is “A (0% ≤ substrate protein remaining % ≤ 80%)”. The “substrate protein remaining % IKZF3” value on IKZF3 was “B (80%< substrate protein remaining %≤ 100%)”. Moreover, on IKZF1, the “substrate protein remaining % IKZF1” value is listed as “A (0% ≤ substrate protein remaining % ≤ 80%)”. Also, the “substrate protein remaining % IKZF2” value on IKZF2 is given as “A (0% ≤ substrate protein remaining % ≤ 80%)”. Besides, the “substrate protein remaining % GSPT1” value on GSPT1 is “A (0% ≤ substrate protein remaining % ≤ 80%)”.

With `O=C1CCN(N2C(=O)c3ccc(CN4CCN(c5noc6cc(F)ccc56)CC4)cc3C2=O)C(=O)N1` [GT-07524, 2-(2,4-dioxotetrahydropyrimidin-1(2H)-yl)-5-((4-(6-fluorobenzo[d]isoxazol-3-yl)piperazin-1-yl)methyl)isoindoline-1,3-dione], the “substrate protein remaining % CK1α” value at CK1α was “B (80%< substrate protein remaining %≤ 100%)”. The “substrate protein remaining % WEE1” value on WEE1 is “A (0% ≤ substrate protein remaining % ≤ 80%)”. On IKZF3, the “substrate protein remaining % IKZF3” value was “B (80%< substrate protein remaining %≤ 100%)”. At IKZF1, the “substrate protein remaining % IKZF1” value is on record as “A (0% ≤ substrate protein remaining % ≤ 80%)”. In addition, at IKZF2, the “substrate protein remaining % IKZF2” value is “A (0% ≤ substrate protein remaining % ≤ 80%)”. The “substrate protein remaining % GSPT1” value on GSPT1 is “A (0% ≤ substrate protein remaining % ≤ 80%)”.

With `O=C1CCN(N2C(=O)c3ccc(CN4CCN(c5noc6ccncc56)CC4)cc3C2=O)C(=O)N1` [GT-07525, 2-(2,4-dioxotetrahydropyrimidin-1(2H)-yl)-5-((4-(isoxazolo[4,5-c]pyridin-3-yl)piperazin-1-yl)methyl)isoindoline-1,3-dione], the “substrate protein remaining % CK1α” value on CK1α is on record as “A (0% ≤ substrate protein remaining % ≤ 80%)”. Moreover, the “substrate protein remaining % WEE1” value at WEE1 is “B (80%< substrate protein remaining %≤ 100%)”. The “substrate protein remaining % IKZF3” value at IKZF3 is listed as “B (80%< substrate protein remaining %≤ 100%)”. In addition, on IKZF1, the “substrate protein remaining % IKZF1” value is listed as “B (80%< substrate protein remaining %≤ 100%)”. At IKZF2, the “substrate protein remaining % IKZF2” value is reported as “B (80%< substrate protein remaining %≤ 100%)”. In addition, the “substrate protein remaining % GSPT1” value at GSPT1 is given as “A (0% ≤ substrate protein remaining % ≤ 80%)”.

Take `O=C1CCN(N2C(=O)c3ccc(CN4CCN(c5nsc6cc(F)ccc56)CC4)cc3C2=O)C(=O)N1` [GT-07526, 2-(2,4-dioxotetrahydropyrimidin-1(2H)-yl)-5-((4-(6-fluorobenzo[d]isothiazol-3-yl)piperazin-1-yl)methyl)isoindoline-1,3-dione]: the “substrate protein remaining % CK1α” value at CK1α is listed as “A (0% ≤ substrate protein remaining % ≤ 80%)”. The “substrate protein remaining % WEE1” value on WEE1 is reported as “B (80%< substrate protein remaining %≤ 100%)”. The “substrate protein remaining % IKZF3” value at IKZF3 was “B (80%< substrate protein remaining %≤ 100%)”. Besides, the “substrate protein remaining % IKZF1” value at IKZF1 is reported as “B (80%< substrate protein remaining %≤ 100%)”. Further, the “substrate protein remaining % IKZF2” value at IKZF2 was “B (80%< substrate protein remaining %≤ 100%)”. The “substrate protein remaining % GSPT1” value on GSPT1 was “A (0% ≤ substrate protein remaining % ≤ 80%)”.

On to `O=C1CCN(N2C(=O)c3ccc(CN4CCN(c5n[nH]c6cc(F)ccc56)CC4)cc3C2=O)C(=O)N1` [GT-07527, 2-(2,4-dioxotetrahydropyrimidin-1(2H)-yl)-5-((4-(6-fluoro-1H-indazol-3-yl)piperazin-1-yl)methyl)isoindoline-1,3-dione], for which, on CK1α, the “substrate protein remaining % CK1α” value is recorded as “A (0% ≤ substrate protein remaining % ≤ 80%)”. The “substrate protein remaining % WEE1” value on WEE1 is “B (80%< substrate protein remaining %≤ 100%)”. Besides, the “substrate protein remaining % IKZF3” value on IKZF3 was “B (80%< substrate protein remaining %≤ 100%)”. In addition, on IKZF1, the “substrate protein remaining % IKZF1” value is listed as “B (80%< substrate protein remaining %≤ 100%)”. On IKZF2, the “substrate protein remaining % IKZF2” value is on record as “B (80%< substrate protein remaining %≤ 100%)”. The “substrate protein remaining % GSPT1” value on GSPT1 was “A (0% ≤ substrate protein remaining % ≤ 80%)”.

On to `O=C1CCN(N2C(=O)c3ccc(CN4CCN(c5c[nH]c6ncccc56)CC4)cc3C2=O)C(=O)N1` [GT-07528, 5-((4-(1H-pyrrolo[2,3-b]pyridin-3-yl)piperazin-1-yl)methyl)-2-(2,4-dioxotetrahydropyrimidin-1(2H)-yl)isoindoline-1,3-dione], for which the “substrate protein remaining % CK1α” value on CK1α was “A (0% ≤ substrate protein remaining % ≤ 80%)”. The “substrate protein remaining % WEE1” value on WEE1 is “B (80%< substrate protein remaining %≤ 100%)”. Further, at IKZF3, the “substrate protein remaining % IKZF3” value is “B (80%< substrate protein remaining %≤ 100%)”. Further, the “substrate protein remaining % IKZF1” value at IKZF1 is listed as “B (80%< substrate protein remaining %≤ 100%)”. The “substrate protein remaining % IKZF2” value on IKZF2 is recorded as “B (80%< substrate protein remaining %≤ 100%)”. The “substrate protein remaining % GSPT1” value at GSPT1 is “A (0% ≤ substrate protein remaining % ≤ 80%)”.

As for `O=C1CCN(N2C(=O)c3ccc(CN4CCC(n5cnc6cc(F)ccc65)CC4)cc3C2=O)C(=O)N1` [GT-07529, 2-(2,4-dioxotetrahydropyrimidin-1(2H)-yl)-5-((4-(5-fluoro-1H-benzo[d]imidazol-1-yl)piperidin-1-yl)methyl)isoindoline-1,3-dione], the “substrate protein remaining % CK1α” value on CK1α is “A (0% ≤ substrate protein remaining % ≤ 80%)”. Moreover, the “substrate protein remaining % WEE1” value on WEE1 is recorded as “B (80%< substrate protein remaining %≤ 100%)”. Also, the “substrate protein remaining % IKZF3” value at IKZF3 is on record as “B (80%< substrate protein remaining %≤ 100%)”. Besides, at IKZF1, the “substrate protein remaining % IKZF1” value is recorded as “B (80%< substrate protein remaining %≤ 100%)”. Besides, the “substrate protein remaining % IKZF2” value on IKZF2 was “B (80%< substrate protein remaining %≤ 100%)”. Further, at GSPT1, the “substrate protein remaining % GSPT1” value is listed as “A (0% ≤ substrate protein remaining % ≤ 80%)”.

`O=C1CCN(N2C(=O)c3ccc(CN4CCC(c5n[nH]c6cc(F)ccc56)CC4)cc3C2=O)C(=O)N1` [GT-07530, 2-(2,4-dioxotetrahydropyrimidin-1(2H)-yl)-5-((4-(6-fluoro-1H-indazol-3-yl)piperidin-1-yl)methyl)isoindoline-1,3-dione]: the “substrate protein remaining % CK1α” value on CK1α is listed as “A (0% ≤ substrate protein remaining % ≤ 80%)”. The “substrate protein remaining % WEE1” value on WEE1 was “A (0% ≤ substrate protein remaining % ≤ 80%)”. For the same compound, on IKZF3, the “substrate protein remaining % IKZF3” value is on record as “B (80%< substrate protein remaining %≤ 100%)”. For the same compound, the “substrate protein remaining % IKZF1” value at IKZF1 was “B (80%< substrate protein remaining %≤ 100%)”. Further, the “substrate protein remaining % IKZF2” value on IKZF2 is “B (80%< substrate protein remaining %≤ 100%)”. The “substrate protein remaining % GSPT1” value at GSPT1 is reported as “A (0% ≤ substrate protein remaining % ≤ 80%)”.

`O=C1CCN(N2Cc3cc(CN4CCN(c5n[nH]c6cc(F)ccc56)CC4)ccc3C2=O)C(=O)N1` [GT-07545, 1-(5-((4-(6-fluoro-1H-indazol-3-yl)piperazin-1-yl)methyl)-1-oxoisoindolin-2-yl)dihydropyrimidine-2,4(1H,3H)-dione]: the “substrate protein remaining % CK1α” value on CK1α is given as “A (0% ≤ substrate protein remaining % ≤ 80%)”. For the same compound, on WEE1, the “substrate protein remaining % WEE1” value is given as “A (0% ≤ substrate protein remaining % ≤ 80%)”. For the same compound, the “substrate protein remaining % IKZF3” value on IKZF3 is reported as “B (80%< substrate protein remaining %≤ 100%)”. Further, the “substrate protein remaining % IKZF1” value on IKZF1 is on record as “A (0% ≤ substrate protein remaining % ≤ 80%)”. Also, on IKZF2, the “substrate protein remaining % IKZF2” value was “B (80%< substrate protein remaining %≤ 100%)”. For the same compound, the “substrate protein remaining % GSPT1” value on GSPT1 was “A (0% ≤ substrate protein remaining % ≤ 80%)”.

These data come from patent EP4722207A1, “OXOISOINDOLINYL-SUBSTITUTED TETRAHYDROPYRIMIDINEDIONE DERIVATIVE AND USE THEREOF” (Gluetacs Therapeutics (Shanghai) Co., Ltd., priority 2023, dated 2024).
